Experiments:
[1] = tested on: virus-specific CD8+ T cell (GP33+CD8 T cell); design: species or system C57BL/6 mouse; details: mouse, in vivo
CD8 T cell = assay: Effect on T cell activation in vitro: proliferation of CD8 T cell (CTV, flow cytometry); assay type: cell-based, C57BL/6 mice; details: T cells activated 3 days with anti-CD3/28 Dynabeads; HL-156A 5, 15, 45 or 135 μM and/or 20 nM rapamycin; FIG. 1B
Text: (§1) The spleen was harvested from normal C57BL/6 mice (Orient Bio) and the mixture obtained by adding a RPMI solution containing 2% (v/v) fetal bovine serum (FBS) to the spleen tissues was homogenized by using a 40 μm strainer.
(§2) T cells were isolated from the homogenized spleen tissue by using CD90.2 magnetic beads (Miltenyi Biotec). Isolated T cells were labeled using CellTrace™ Violet (CTV). Subsequently, labeled T cells were activated for 3 days by using anti-CD3/28 Dynabeads®.
(§3) During T cells were activated, 5 μM, 15 μM, 45 μM, or 135 μM HL-156A (Hanoi BioPharma Inc.), and/or 20 nM rapamycin (LC Laboratories) were added to identify the effect of HL-156A, or the combination of HL-156A and rapamycin on the proliferation of T cells. […]
(§4) Activated T cells were immunostained by using allophycocyanin (APC)-labeled anti-CD4 antibody (BD Biosciences) and peridinin chlorophyll protein complex (PerCP)-labeled anti-CD8 antibody (eBioscience). Immunostained T cells were analyzed by flow cytometric analysis to identify the surface molecular phenotype thereof. From the results obtained by flow cytometric analysis, the proliferation ratio (%) of the T cell with respect to a material treated on the T cell was calculated, and the proliferation ratio (%) of CD4 T cell and the proliferation ratio (%) of CD8 T cell with respect to a compound are shown in FIGS. 1A and 1B, respectively.

[2] = tested on: TNF-α production in MH7A cells; assay: Inhibition of tumor necrosis factor-alpha production in synoviocyte MH7A (ELISA); assay type: cell-based, human; details: for amount of TNF-α in MH7A culture solution, Average: LPS, 24 h, control 1 (HL156A series), 3.53 (HL156B series); for production of TNF-α in the cells (MH7A), result in words: 0.1, 1, 10 μM, Table 2 and FIG. 2B
Method: Human synoviocyte cell line MH7A (provided by Prof. Kim Wan-wook of Catholic University) was prepared and cultured at a temperature of 37° C. and under 5% CO2.
The prepared MH7A cells were inoculated onto a 96-well plate at the density of 3×10^4 cells, and lipopolysaccharide (LPS) was added thereto to induce the immune response of MH7A cells. Then, HL-156A or HL-156B was added at a concentration of 0.1 μM, 1 μM, or 10 μM to the cell culture solution. As a negative control, a group in which LPS was used but no drug was used, was used.
After MH7A cells were cultured for 24 hours, the amount of TNF-α in the culture solution was measured by using a TNF-α ELISA kit (Peprotach).

CD4 T cell = assay: Effect on T cell activation in vitro: proliferation of CD4 T cell (CTV, flow cytometry); assay type: cell-based, C57BL/6 mice; details: T cells activated 3 days with anti-CD3/28 Dynabeads; HL-156A 5, 15, 45 or 135 μM and/or 20 nM rapamycin; FIG. 1A
Text: as §1, §2, §3, §4

[3] = tested on: TNF-α production in THP-1 cells; assay: Inhibition of tumor necrosis factor-alpha production in THP-1 cell line (ELISA); assay type: cell-based, human; details: for amount of TNF-α produced in THP-1 cells, Average: PMA 25 ng/ml 24 h, then LPS, 24 h, No Drug control 5250; for production of TNF-α in cells (THP-1), result in words: FIG. 2A and Table 1
Method: The human THP-1 cell line (ATCC) was prepared and cultured at a temperature of 37° C. and under 5% CO2.
Prepared THP-1 cells were inoculated onto a 96-well plate at the density of 1×10^5, and HL-156A, HL-156B, HL-156C, HL-156D, HL-156E, and HL-156F (all produced by Hanoi BioPharma Inc.) were added at the concentration of 1 μM or 10 μM to the cell culture solution. Thereafter, 25 ng/ml of phorbol 12-myristate 13-acetate (PMA, Sigma-Aldrich) was added to the cell culture solution, and cells were cultured for 24 hours, and then, lipopolysaccharide (LPS) was added thereto to induce an immune response of THP-1 cell. As a negative control, a group in which LPS was not added or a group in which
LPS was added but no drug was added, were used.
THP-1 cells were cultured for 24 hours, and then, the amount of tumor necrosis factor-alpha (TNF-α) in the culture solution by using TNF ELISA kit (Invitrogen) was measured.

[4] = tested on: collagen-induced arthritis mouse model; assay: Collagen-induced arthritis mouse model, arthritis score; assay type: in vivo, DBA/1 mouse; details: 60 mg/kg intraperitoneally once every two days; mice with average arthritis score of 8; FIG. 5
Method: Bovine Type II collagen was dissolved in complete freund's adjuvant (CFA) containing 250 μg per mouse of heat-sterilized Mycobacterium tuberculosis H37Ra (BD Sciences) to prepare a collagen solution.
DBA/1 mouse was immunized by intradermally injecting […] per mouse of the prepared collagen thereinto. On day 21 after the immunization, bovine Type II collagen dissolved in incomplete freund's adjuvant (IFA) was injected subcutaneously into the tail of a mouse in an amount of 100 μg to boost the immune system.
The arthritis score of mice was measured using the following criteria:
Grade 0: swelling or erythema;
Grade 1: mild swelling and erythema, inflammation of the toes;
Grade 2: moderate swelling and erythema confined to the distal to mid-limbs;
Grade 3: extended to the ankle, clear swelling and erythema; and
Grade 4: Severe swelling, erythema, and joint stiffness of ankle, foot, and toes.
A score of 0 to 4 was assigned to each leg, and a maximum of 16 points of arthritis scores were assigned to each mouse.
Mice with an average arthritis score of 8 were randomly selected. The HL-156A compound was diluted in PBS and administered to the selected mice intraperitoneally once every two days with 60 mg/kg body weight of HL-156A compound.

N=C(NC(=N)N1CCCC1)Nc1ccc(OC(F)(F)F)cc1 [HL-156A, N1-pyrrolidine-N5-(4-trifluoromethoxy)phenyl biguanide]
differentiation of TCM cells and TEM cells in PBMCs [1]: inhibited | proliferation of TEFF cells in PBMCs [1]: promoted | proliferation of CD8 T cell (CD8 T cell): significantly inhibited | amount of TNF-α in MH7A culture solution, Average ([2]; 0.1 μM compound): 0.82 | amount of TNF-α in MH7A culture solution, Average ([2]; 1 μM compound): 0.75 | amount of TNF-α in MH7A culture solution, Average ([2]; 10 μM compound): 0.72 | production of TNF-α in the cells (MH7A), result in words [2]: inhibited the production of TNF-α in a concentration-dependent manner | proliferation of CD4 T cell (CD4 T cell): significantly inhibited | amount of TNF-α produced in THP-1 cells, Average ([3]; 1 μM compound): 6750 pg/mL | amount of TNF-α produced in THP-1 cells, Average ([3]; 10 μM compound): 3025 pg/mL | production of TNF-α in cells (THP-1), result in words [3]: inhibited the production of TNF-α | arthritis score over time [4]: decreased the arthritis score over time

N=C(NC(=N)N1CCCC1)Nc1ccc(C(F)(F)F)cc1 [HL-156B, N1-pyrrolidine-N5-(4-trifluoromethyl)phenyl biguanide]
amount of TNF-α in MH7A culture solution, Average ([2]; 0.1 μM compound): 3.11 | amount of TNF-α in MH7A culture solution, Average ([2]; 1 μM compound): 2.56 | amount of TNF-α in MH7A culture solution, Average ([2]; 10 μM compound): 2.17 | production of TNF-α in the cells (MH7A), result in words [2]: inhibited the production of TNF-α in a concentration-dependent manner | amount of TNF-α produced in THP-1 cells, Average ([3]; 1 μM compound): 6125 pg/mL | amount of TNF-α produced in THP-1 cells, Average ([3]; 10 μM compound): 2875 pg/mL | production of TNF-α in cells (THP-1), result in words [3]: inhibited the production of TNF-α

N=C(NC(=N)N1CCCCC1)Nc1ccc(F)cc1 [HL-156C, N1-piperidine-N5-(4-fluoro)phenyl biguanide]
amount of TNF-α produced in THP-1 cells, Average ([3]; 1 μM compound): 4825 pg/mL | amount of TNF-α produced in THP-1 cells, Average ([3]; 10 μM compound): 6375 pg/mL

N=C(NC(=N)N1CCCCC1)Nc1ccc(-c2nnn[nH]2)cc1 [HL-156D, N1-piperidine-N5-(4-(1H-tetrazole-5-yl))phenyl biguanide]
amount of TNF-α produced in THP-1 cells, Average ([3]; 1 μM compound): 6125 pg/mL | amount of TNF-α produced in THP-1 cells, Average ([3]; 10 μM compound): 5150 pg/mL

N=C(NC(=N)N1CCCC1)Nc1ccc(Cl)c(Cl)c1 [HL-156E, N1-pyrrolidine-N5-(3,4-dichloro)phenyl biguanide]
amount of TNF-α produced in THP-1 cells, Average ([3]; 1 μM compound): 4725 pg/mL | amount of TNF-α produced in THP-1 cells, Average ([3]; 10 μM compound): 1925 pg/mL | production of TNF-α in cells (THP-1), result in words [3]: inhibited the production of TNF-α

COc1cc(NC(=N)NC(=N)N2CCCCC2)cc(OC)c1 [HL-156F, N1-piperidine-N5-(3,5-dimethoxy)phenyl biguanide]
amount of TNF-α produced in THP-1 cells, Average ([3]; 1 μM compound): 6425 pg/mL | amount of TNF-α produced in THP-1 cells, Average ([3]; 10 μM compound): 4650 pg/mL | production of TNF-α in cells (THP-1), result in words [3]: inhibited the production of TNF-α

— patent US11826324B2, “Pharmaceutical compositions for preventing or treating inflammatory disease, autoimmune disease, or combination thereof, and method for using same” (INDUSTRY-ACADEMIC COOPERATION FOUNDATION, YONSEI UNIVERSITY, priority 2017, dated 2023)
